Data taken from patent US20140163095A1, “USE OF ERIBULIN IN THE TREATMENT OF BREAST CANCER” (priority 2012, published 2014).
Marks after values point to notes of the source that are not given here.

Key:
[1] = system: locally recurrent or metastatic HER2 negative breast cancer; test: Phase II clinical trial of eribulin mesylate as first-line treatment (Part 1); type: in vivo, human; settings: for DOR (duration of response), Median months (95% CI) / TTR (time to first response), Median months (95% CI): 13 responders
Procedure: A multi-center, single-arm, phase II clinical trial of eribulin mesylate was performed to evaluate the objective response rate (ORR) (according to RECIST v1.1) to first-line treatment with single-agent eribulin mesylate in subjects with locally recurrent or metastatic HER2 negative breast cancer. Secondary objectives included the safety and tolerability of eribulin mesylate, time to first response, duration of response (DOR), and progression free survival (PFS).
Patients were excluded from the study if they had inflammatory breast cancer or had received prior chemotherapy, biologic therapy, or investigational therapy for locally recurrent or metastatic breast cancer (patients who received prior endocrine therapy were permitted).
HER2 status was determined by either fluorescence in situ hybridization (FISH) or 0 or 1+ by immunohistochemical (IHC) staining. Subjects with an HER2:FISH ratio of 1.8:2.2 were eligible, consistent with ASCO/CAP guidelines (Wolff et al., J. Clin. Oncol. 25:118-145, 2007).

[2] = system: locally recurrent or metastatic HER2 negative breast cancer; test: Phase II clinical trial of eribulin mesylate as first-line treatment (Part 2, additional data); type: in vivo, human
Source text: This example provides additional data obtained from the study described above in Example 2. The baseline demographics and characteristics of patients in the study are as set forth below in Table 6.

[3] = system: locally advanced or metastatic breast cancer; test: Phase III clinical trial comparing eribulin mesylate and capecitabine; settings: for overall survival as compared to capecitabine: FIG. 6
Procedure: A global, randomized, open-label, two-parallel-arm, phase III clinical trial of eribulin (eribulin mesylate) and capecitabine was performed.
This study randomized 1102 patients who had up to three prior chemotherapy regimens, and no more than two prior regimens for advanced and/or metastatic disease. The prior regimens must have included an anthracycline and a taxane, either in the (neo) adjuvant setting or for locally advanced or metastatic disease. Patients must have had documented evidence of progression during or after their most recent anti-cancer therapy. […] Patients were randomized to receive either eribulin mesylate as an intravenous (IV) infusion of 1.4 mg/m^2 over 2-5 minutes on days 1 and 8 every 21 days or capecitabine as an oral administration of 2.5 g/m^2/day administered twice daily in two equal doses on days 1 to 14 every 21 days.
This study was designed to have co-primary endpoints, overall survival (OS) and progression free survival (PFS), with alpha spending 0.04 and 0.01, respectively.
Progression events (disease progression determined by Response Evaluation Criteria in Solid Tumors [RECIST, version 1.0]) were categorized as: (i) emergence of a new lesion/metastasis, defined here as a lesion identified at progression that had not been previously reported, (ii) increase in size of an existing (previously reported) lesion (target or non-target), and (iii) other PFS event, e.g., death, clinical progression, or censoring. Investigator review of disease progression was used as the primary analysis for these investigations. Where progression was determined by investigator review, no further scans were performed, leading to informative censoring of independent review data (approximately 20%). The number of new metastases observed by independent review was considered an under-estimate due to this considerable informative censoring. OS and PFS were compared between treatment arms using two-sided, stratified (geographic region and HER2 status) log-rank tests. The correlation between progression events and OS was investigated by Cox regression, incorporating the event as a time-dependent covariate. New metastasis-free survival, defined as time from randomization to death or progression due to appearance of a new metastasis (whichever occurs earlier), was also analyzed.

[4] = All Subjects, listed as eribulin
[5] = ER−/PR−/HER2−, n 2, CI not available
[6] = of patients with any new metastasis

SMILES: C=C1C[C@@H]2CC[C@@]34C[C@H]5O[C@H]6[C@@H](O3)[C@H]3O[C@H](CC[C@@H]3O[C@H]6[C@H]5O4)CC(=O)C[C@@H]3[C@@H](OC)[C@@H](C[C@H](O)CN)O[C@H]3C[C@H]3O[C@@H](CC[C@@H]1O2)C[C@@H](C)C3=C.CS(=O)(=O)O [Eribulin, 11,15:18,21:24,28-Triepoxy-7,9-ethano-12,15-methano-9H,15H-furo[3,2-i]furo[2′,3′:5,6]pyrano[4,3-b][1,4]dioxacyclopentacosin-5(4H)-one, 2-[(2S)-3-amino-2-hydroxypropyl]hexacosahydro-3-methoxy-26-methyl-20,27-bis(methylene)-, (2R,3R,3aS,7R,8aS,9S,10aR,11S,12R,13aR,13bS,15S,18S,21S,24S,26R,28R,29aS)-methanesulfonate (salt)]
- DOR (duration of response), Median months (95% CI) ([1]; All Subjects): 7.4 (3.29, NE) months
- TTR (time to first response), Median months (95% CI) ([1]; All Subjects): 1.4 (1.31, 2.69) months
- DOR (duration of response), Median months (95% CI) [1, 4]: 7.4 months
- TTR (time to first response), Median months (95% CI) [1, 4]: 1.4 months
- PFS, Median months (95% CI) ([1]; All Subjects, N 48): 5.9 (3.48, 7.39) months
- PFS, Median months (95% CI) ([1]; All Subjects, N 48, listed as eribulin): 5.9 months
- Clinical benefit rate (CR + PR + durable SD) ([1]; All, N = 48): 22 (45.8) n (%)
- Complete response (CR) ([1]; All, N = 48): 0 n (%)
- Disease control rate (CR + PR + SD) ([1]; All, N = 48): 36 (75.0) n (%)
- Not evaluable/unknown (response category) ([1]; All, N = 48): 1 (2.1) n (%)
- Objective response rate (ORR) ([1]; All, N = 48): 13 (27.1) n (%)
- Partial response (PR) ([1]; All, N = 48): 13 (27.1) n (%)
- Progressive disease (PD) ([1]; All, N = 48): 11 (22.9) n (%)
- DOR, Median months (95% CI) ([1]; ER+ Subjects, N 10): 7.4 (3.29, NE) months
- TTR, Median months (95% CI) ([1]; ER+ Subjects, N 10): 1.4 (1.22, 2.66) months
- PFS, Median months (95% CI) ([1]; ER+ Subjects, N 35): 6.7 (4.14, 8.54) months
- Clinical benefit rate (CR + PR + durable SD) ([1]; ER+, N = 35): 19 (54.3) n (%)
- Complete response (CR) ([1]; ER+, N = 35): 0 n (%)
- Disease control rate (CR + PR + SD) ([1]; ER+, N = 35): 29 (82.9) n (%)
- Not evaluable/unknown (response category) ([1]; ER+, N = 35): 0 n (%)
- Objective response rate (ORR) ([1]; ER+, N = 35): 10 (28.6) n (%)
- Partial response (PR) ([1]; ER+, N = 35): 10 (28.6) n (%)
- Progressive disease (PD) ([1]; ER+, N = 35): 6 (17.1) n (%)
- sum of target lesion diameters from baseline to post-baseline nadir ([1]; FIG. 10, in words): majority of patients experienced a decrease
- Objective response rate (ORR) ([1]; Triple Negative (ER−/PR−/HER2−), N = 10): 3 (30.0) n (%)
- TTR, Median months (95% CI) ([1]; Triple Negative Subjects, N 3): 2.9 (1.15, 5.59) months
- PFS, Median months (95% CI) ([1]; Triple Negative Subjects, N 10): 4.7 (1.05, NE) months
- Clinical benefit rate (CR + PR + durable SD) ([1]; Triple Negative, N = 10): 3 (30.0) n (%)
- Complete response (CR) ([1]; Triple Negative, N = 10): 0 n (%)
- Disease control rate (CR + PR + SD) ([1]; Triple Negative, N = 10): 6 (60.0) n (%)
- Not evaluable/unknown (response category) ([1]; Triple Negative, N = 10): 1 (10.0) n (%)
- Partial response (PR) ([1]; Triple Negative, N = 10): 3 (30.0) n (%)
- Progressive disease (PD) ([1]; Triple Negative, N = 10): 3 (30.0) n (%)
- Objective response rate (ORR) ([1]; all patients (13/48)): 27.1%
- DOR (duration of response), Median months (95% CI) ([2]; ALL, 16 responders): 5.8 (4.7-10.6) months
- TTR (time to first response), Median months (95% CI) ([2]; ALL, 16 responders): 1.4 (1.2-2.7) months
- TTR (time to first response), Median months (95% CI) ([2]; ALL, 16 responders, listed as eribulin): 1.4 months
- PFS, Median months (95% CI) ([2]; ALL, N 56): 6.8 (4.4-7.6) months
- PFS, Median months (95% CI) ([2]; ALL, N 56, listed as eribulin): 6.8 months
- Clinical benefit rate (CR + PR + ≧6 months SD) ([2]; ALL, N = 56): 29 (51.8) n (%)
- Complete response (CR) ([2]; ALL, N = 56): 0 n (%)
- Disease control rate (CR + PR + SD) ([2]; ALL, N = 56): 42 (75.0) n (%)
- Not evaluable/unknown (response category) ([2]; ALL, N = 56): 3 (5.4) n (%)
- Objective response rate (ORR) ([2]; ALL, N = 56): 16 (28.6) n (%)
- Partial response (PR) ([2]; ALL, N = 56): 16 (28.6) n (%)
- Progressive disease (PD) ([2]; ALL, N = 56): 11 (19.6) n (%)
- ORR ([2]; ER+ subgroup): 34.1%
- disease control rate ([2]; ER+ subgroup): 85.4%
- DOR, Median months (95% CI) ([2]; ER+, n 14): 7.4 (4.6-27.5) months
- TTR, Median months (95% CI) ([2]; ER+, n 14): 2.0 (1.3-2.7) months
- PFS, Median months (95% CI) ([2]; ER+, n 41): 7.4 (6.1-11.9) months
- PFS, Median months (95% CI) ([2]; ER+, n 41, listed as eribulin): 7.4 months
- Clinical benefit rate (CR + PR + ≧6 months SD) ([2]; ER+, n = 41): 26 (63.4) n (%)
- Complete response (CR) ([2]; ER+, n = 41): 0 n (%)
- Disease control rate (CR + PR + SD) ([2]; ER+, n = 41): 35 (85.4) n (%)
- Not evaluable/unknown (response category) ([2]; ER+, n = 41): 1 (2.4) n (%)
- Objective response rate (ORR) ([2]; ER+, n = 41): 14 (34.1) n (%)
- Partial response (PR) ([2]; ER+, n = 41): 14 (34.1) n (%)
- Progressive disease (PD) ([2]; ER+, n = 41): 5 (12.2) n (%)
- DOR, Median months [2, 5]: 5.2* months
- TTR, Median months [2, 5]: 1.1* months
- PFS, Median months (95% CI) ([2]; ER−/PR−/HER2−, n 12): 3.4 (1.2-6.8) months
- sum of target lesion diameters from baseline to postbaseline nadir ([2]; FIG. 12, in words): majority of patients experienced a decrease
- Objective response rate (ORR) ([2]; Triple negative (ER−/PR−/HER2−), n = 12): 2 (16.1) n (%)
- Clinical benefit rate (CR + PR + ≧6 months SD) ([2]; Triple negative, n = 12): 3 (25.0) n (%)
- Complete response (CR) ([2]; Triple negative, n = 12): 0 n (%)
- Disease control rate (CR + PR + SD) ([2]; Triple negative, n = 12): 6 (50.0) n (%)
- Not evaluable/unknown (response category) ([2]; Triple negative, n = 12): 1 (8.3) n (%)
- Partial response (PR) ([2]; Triple negative, n = 12): 2 (16.7) n (%)
- Progressive disease (PD) ([2]; Triple negative, n = 12): 5 (41.7) n (%)
- ORR ([2]; all patients (16/56)): 28.6%
- median PFS ([2]; patients who did not receive prior A/T): 5.7 months
- median PFS ([2]; patients who had received prior A/T): 5.9 months
- clinical benefit rate (CBR) ([2]; patients with prior A/T (15/33)): 45.5%
- ORR ([2]; patients with prior neo/adjuvant anthracyclines and/or taxanes (A/T) (9/33)): 27.3%
- time to a new metastasis observed in the CNS, lungs, or liver ([3]; FIG. 5, in words): trend favouring eribulin over capecitabine
- overall survival as compared to capecitabine ([3]; HER2 negative patients, in words): increased overall survival
- median overall survival (OS) ([3]; all randomized patients): 15.9 months
- median progression-free survival (PFS) ([3]; all randomized patients): 4.1 months
- median survival as compared to capecitabine ([3]; breast cancers not characterized as triple negative, FIG. 7B, in words): similar
- New metastasis site: Bone, patients ([3]; count): 60
- New metastasis site: Breast, patients ([3]; count): 12
- New metastasis site: CNS (brain/spine), patients ([3]; count): 13
- New metastasis site: Chest wall, patients ([3]; count): 15
- New metastasis site: Liver, patients ([3]; count): 71
- New metastasis site: Lung, patients ([3]; count): 59
- New metastasis site: Lymph nodes, patients ([3]; count): 64
- New metastasis site: Other, patients ([3]; count): 30
- New metastasis site: Skin, patients ([3]; count): 23
- Number of patients with any new metastasis observed ([3]; count, investigator review, intent-to-treat): 291
- hazard ratio, overall survival ([3]; eribulin versus capecitabine, 95% CI 0.77, 1.00): 0.88
- hazard ratio, progression-free survival ([3]; eribulin versus capecitabine, 95% CI 0.93, 1.25): 1.08
- 1-year OS relative to capecitabine ([3]; in words): statistically significant improvement
- new metastasis-free survival, median difference in favour of eribulin ([3]; independent review): 0.3 months
- new metastasis-free survival, median difference in favour of eribulin ([3]; investigator review): 0.6 months
- patients with progression due to a new metastasis ([3]; investigator review): 48.9%
- patients with progression due to increase in the size of a pre-existing lesion ([3]; investigator review): 26.5%
- patients with progression due to other reasons such as death and clinical progression ([3]; investigator review): 24.5%
- patients with any new metastasis observed, percentage ([3]; investigator review, intent-to-treat): (52.5) %
- HR, new metastasis-free survival ([3]; investigator review, eribulin versus capecitabine): 0.90
- New metastasis site: Bone, percentage [3, 6]: (20.6) %
- New metastasis site: Breast, percentage [3, 6]: (4.1) %
- New metastasis site: CNS (brain/spine), percentage [3, 6]: (4.5) %
- New metastasis site: Chest wall, percentage [3, 6]: (5.2) %
- New metastasis site: Liver, percentage [3, 6]: (24.4) %
- New metastasis site: Lung, percentage [3, 6]: (20.3) %
- New metastasis site: Lymph nodes, percentage [3, 6]: (22.0) %
- New metastasis site: Other, percentage [3, 6]: (10.3) %
- New metastasis site: Skin, percentage [3, 6]: (7.9) %
- median OS longer with eribulin compared with capecitabine ([3]; patients whose disease progressed due to a new metastasis): 2.6 months
- Median OS ([3]; patients whose disease progressed due to other events): 16.7 months
- Median OS ([3]; patients with progression due to new metastasis): 15.5 months
- Median OS ([3]; patients with progression due to pre-existing lesion): 17.4 months
- HR, overall survival ([3]; progression due to new metastasis, eribulin versus capecitabine): 0.81
- HR, overall survival ([3]; progression due to other events, eribulin versus capecitabine): 0.78
- HR, overall survival ([3]; progression due to pre-existing lesion, eribulin versus capecitabine): 1.13
- median survival as compared to capecitabine ([3]; triple negative breast cancers, FIG. 7A, in words): statistically significant increase
- overall survival as compared to capecitabine ([3]; triple negative patients, in words): most significant improvement
